What was measured:
Test in all cases: Test E pre-/postemergence plant response
Type in all cases: in vivo
Conditions in all cases: Postemergence, scale 0 to 100
[1] = test system: black mustard (Brassica nigra)
Method in brief: (§1)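 Steps: sow seeds; apply compound preemergence in a non-phytotoxic solvent/surfactant formulation; in parallel, spray the same formulation postemergence on 1- to 4-leaf plants (2–18 cm); hold 14–21 days in a greenhouse; rate visually vs controls, 0 = no effect, 100 = complete control.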

[2] = test system: common purslane (Portulaca oleracea)
Method in brief: as §1

[3] = test system: Italian ryegrass (Lolium multiflorum)
Method in brief: as §1

[4] = test system: purple nutsedge (Cyperus rotundus)
Method in brief: as §1

[5] = test system: barnyardgrass (Echinochloa crus-galli)
Method in brief: as §1

[6] = test system: broadleaf signalgrass (Brachiaria platyphylla)
Method in brief: as §1

[7] = test system: naked crabgrass (Digitaria nuda)
Method in brief: as §1

[8] = test system: pitted morningglory (Ipomoea lacunosa)
Method in brief: as §1

[9] = test system: annual bluegrass (Poa annua)
Method in brief: as §1

[10] = test system: goosegrass (Eleusine indica)
Method in brief: as §1

[11] = test system: large crabgrass (Digitaria sanguinalis)
Method in brief: as §1

[12] = test system: southern (S.) sandbur (Cenchrus echinatus)
Method in brief: as §1

[13] = test system: bermudagrass (Cynodon dactylon)
Method in brief: as §1

[14] = test system: guineagrass (Panicum maximum)
Method in brief: as §1

[15] = test system: common groundsel (Senecio vulgaris)
Method in brief: as §1

[16] = test system: dallisgrass (Paspalum dilatatum)
Method in brief: as §1

[17] = test system: johnsongrass (Sorghum halepense)
Method in brief: as §1

Cc1cc(-c2ccc(Cl)cc2)nn1-c1c(OC(=O)Oc2ccccc2)cnn(C)c1=O [Compound 54]
30: Plant response rating, Dallisgrass ([16]; 16 g ai/ha)
100: Plant response rating, Ryegrass, Italian ([3]; 31 g ai/ha) | Plant response rating, Ryegrass, Italian ([3]; 62 g ai/ha) | Plant response rating, Barnyardgrass ([5]; 31 g ai/ha) | Plant response rating, Barnyardgrass ([5]; 62 g ai/ha) | Plant response rating, Signalgrass ([6]; 62 g ai/ha) | Plant response rating, Crabgrass, Large ([11]; 62 g ai/ha) | Plant response rating, Guineagrass ([14]; 62 g ai/ha) | Plant response rating, Johnsongrass ([17]; 31 g ai/ha) | Plant response rating, Johnsongrass ([17]; 62 g ai/ha)
90: Plant response rating, Signalgrass ([6]; 16 g ai/ha) | Plant response rating, Crabgrass, Naked ([7]; 31 g ai/ha) | Plant response rating, Crabgrass, Naked ([7]; 62 g ai/ha) | Plant response rating, Sandbur, S. ([12]; 31 g ai/ha)
10: Plant response rating, Crabgrass, Naked ([7]; 8 g ai/ha) | Plant response rating, Bermudagrass ([13]; 8 g ai/ha)
85: Plant response rating, Crabgrass, Naked ([7]; 16 g ai/ha)
0: Plant response rating, Mustard, Black ([1]; 8 g ai/ha) | Plant response rating, Mustard, Black ([1]; 16 g ai/ha) | Plant response rating, Mustard, Black ([1]; 31 g ai/ha) | Plant response rating, Mustard, Black ([1]; 62 g ai/ha) | Plant response rating, Purslane ([2]; 8 g ai/ha) | Plant response rating, Purslane ([2]; 16 g ai/ha) | Plant response rating, Purslane ([2]; 31 g ai/ha) | Plant response rating, Purslane ([2]; 62 g ai/ha) | Plant response rating, Nutsedge, Purple ([4]; 8 g ai/ha) | Plant response rating, Nutsedge, Purple ([4]; 16 g ai/ha) | Plant response rating, Nutsedge, Purple ([4]; 31 g ai/ha) | Plant response rating, Nutsedge, Purple ([4]; 62 g ai/ha) | Plant response rating, Morningglory ([8]; 8 g ai/ha) | Plant response rating, Morningglory ([8]; 16 g ai/ha) | Plant response rating, Morningglory ([8]; 31 g ai/ha) | Plant response rating, Morningglory ([8]; 62 g ai/ha) | Plant response rating, Bluegrass ([9]; 8 g ai/ha) | Plant response rating, Bluegrass ([9]; 16 g ai/ha) | Plant response rating, Bluegrass ([9]; 31 g ai/ha) | Plant response rating, Bluegrass ([9]; 62 g ai/ha) | Plant response rating, Goosegrass ([10]; 8 g ai/ha) | Plant response rating, Goosegrass ([10]; 16 g ai/ha) | Plant response rating, Groundsel ([15]; 8 g ai/ha) | Plant response rating, Groundsel ([15]; 16 g ai/ha) | Plant response rating, Groundsel ([15]; 31 g ai/ha)
75: Plant response rating, Signalgrass ([6]; 8 g ai/ha)
50: Plant response rating, Goosegrass ([10]; 31 g ai/ha)
20: Plant response rating, Bermudagrass ([13]; 16 g ai/ha) | Plant response rating, Dallisgrass ([16]; 8 g ai/ha) | Plant response rating, Johnsongrass ([17]; 8 g ai/ha)
98: Plant response rating, Barnyardgrass ([5]; 16 g ai/ha) | Plant response rating, Signalgrass ([6]; 31 g ai/ha)
25: Plant response rating, Crabgrass, Large ([11]; 8 g ai/ha)
95: Plant response rating, Barnyardgrass ([5]; 8 g ai/ha) | Plant response rating, Goosegrass ([10]; 62 g ai/ha) | Plant response rating, Crabgrass, Large ([11]; 31 g ai/ha) | Plant response rating, Sandbur, S. ([12]; 62 g ai/ha) | Plant response rating, Guineagrass ([14]; 8 g ai/ha) | Plant response rating, Guineagrass ([14]; 16 g ai/ha) | Plant response rating, Guineagrass ([14]; 31 g ai/ha)
40: Plant response rating, Bermudagrass ([13]; 31 g ai/ha) | Plant response rating, Dallisgrass ([16]; 31 g ai/ha)
80: Plant response rating, Ryegrass, Italian ([3]; 8 g ai/ha) | Plant response rating, Ryegrass, Italian ([3]; 16 g ai/ha) | Plant response rating, Crabgrass, Large ([11]; 16 g ai/ha) | Plant response rating, Sandbur, S. ([12]; 16 g ai/ha) | Plant response rating, Bermudagrass ([13]; 62 g ai/ha) | Plant response rating, Dallisgrass ([16]; 62 g ai/ha)
60: Plant response rating, Sandbur, S. ([12]; 8 g ai/ha) | Plant response rating, Johnsongrass ([17]; 16 g ai/ha)
